Entries after “also recorded” stand apart in the source; their conditions may differ.
Assays:
[1] = system: gp120-induced calcium signaling in HT-29 cells; experiment: Inhibition of gp120-induced calcium signaling in HT-29 cells; type: cell-based, human; details: pretreatment
Protocol: Calcium studies were done on HT-29 cells and Ghost (3) cells loaded with Fluo 4. The cells were placed in Locke's buffer containing 5 μg/ml Fluo 4 AM ester (Molecular Probes) for 20 to 30 minutes, then in Locke's buffer for an additional 30 minutes before testing. Various concentrations of gp120IIIB (X4 trophic), gp120CM235 (R5 trophic), gp120mN (X4 trophic), gp12093TH975 (nonsyncytium-inducing primary isolate from an asymptomatic subject, trophism undetermined but likely R5), and gp120SF2 (X4R5 trophic), ranging from 10 nM to less than 1 pM, were added in Locke's buffer.^6 The gp120 proteins were obtained from the AIDS Research Reagent Referral Program. Some HT-29 cells were given one of the following pretreatments: 50 μg/ml anti-Bob37 overnight, 1 μg/ml pertussis toxin overnight, or 4.6 μg/ml U73122 for one hour. With the HT-29 cells only, similar tests were also performed with SDF-1, MIP-1α, MIP-1β, and RANTES rather than gp120. The cells were visualized every 4 seconds in a confocal microscope, using 488 nm argon laser excitation and detection filters appropriate for fluorescein-like dyes.
Blocking antibody experiments were done with HT-29 cells (monitoring calcium flux, microtubule loss, or transepithelial resistance), with Ghost (3) Bob cells (monitoring calcium flux) and peripheral blood mononuclear cells (monitoring calcium flux and HIV infection). Specifics of these protocols and the specific results are given herein. […] Antibody concentrations of 40 to 50 micrograms/ml overnight were needed for maximal effect.
For the first two or three days after plating, gp120 induces an immediate (within 4 seconds) calcium flux in undifferentiated HT-29 cells. The cells had previously been loaded with Fluo-4 AM ester (Molecular Probes, Eugene Oreg.) 5 micrograms/ml in the presence of Pleuronic F-127 0.02% in Locke's buffer for 30 minutes, then incubated at room temperature for an additional 30 minutes. Gp120IIIB was added while the cells were on an inverted confocal microscope using a 488 nm argon laser, with detection filters suitable for fluorescein-like dyes. […]

[2] = system: microtubules in HT-29 cells; experiment: Microtubule staining (acetylated tubulin) in HT-29 cells; type: cell-based, human; details: pretreatment before gp120
Protocol: To examine the microtubules, HT-29 cells were treated with 10 nM gp120CM235 or 50 pM gp120IIIB, then fixed one hour later in 4 g/100 ml paraformaldehyde PBS, then stained with mouse anti acetylated tubulin (5 μg/ml, Sigma) by a method similar to that given above. Some cells were pretreated with 50 μg/ml antiBob37 overnight, 1 μg/ml pertussis toxin overnight, or 4.6 μg/ml U73122 for one hour before the gp120 was added. Untreated cells were also stained.
Similarly treated undifferentiated HT-29 cells (except that Fluo-4 was not added) were fixed in paraformaldehyde phosphate buffered saline one hour after gp120 treatment.

[3] = GalCer-gp120 interactions at the air-water interface (surface pressure); type: binding; details: gp120 5 nM in aqueous subphase
Protocol: A monomolecular film of GalCer was prepared at the air-water interface and gp120 purified from either IIIB (full squares), SEN (open circles) or 89.6 (full circles) isolates was added in the aqueous subphase at a concentration of 5 nM. The kinetics of the surface pressure increase induced by the viral glycoproteins are shown.
Galactosylceramide with an α-hydroxylated fatty acid (referred to as GalCer throughout this study) was either prepared from bovine brain (Sigma) or purified from HT-29-D4 membrane rafts (Fantini et al., 2000a). The surface pressure was measured with a microtensiometer (Kibron Inc., Finland) specially designed for studying protein-lipid interactions (Fantini et al., 2000a). The experiments were carried at 25° C. out in a laboratory equipped with a filtered air supply. A solution of GalCer was prepared extemporaneously in hexane:chloroform:methanol, 11:5:4 (v:v:v) at a concentration of 1 mg/ml. The lipid was carefully spread onto the meniscus of a pure water subphase (800 μl). The proteic ligand (GPR15/Bob peptides or HIV-1 gp120) was injected into the subphase with a 10 μl Hamilton syringe. The surface pressure was continuously measured as a function of time until reaching equilibrium corresponding to the maximal surface presure increase (Δπmax) expressed in mN/m.
In a recent study, it was shown that the interaction between GalCer and gp120 purified from HIV-1(IIIB) was very efficient, whereas gp120s from 89.6 and SEN isolates interacted very weakly (Hammache et al., 1998). The kinetics of this interaction are an important physicochemical parameter allowing the direct comparison of GalCer recognition by various gp120s. In the experiment shown in FIG. 11, gp120 purified from IIIB, SEN, or 89.6 was injected underneath a monomolecular film of GalCer at the air-water interface. The GalCer film mimics the topology of a GalCer raft as it is organized in the external leaflet of the plasma membrane. For this reason, the Langmuir film balance technique is one of the most sensitive and reliable for studying protein-glycolipid interactions (Maggio et al., 1994). […] The surface increase indicates a condensing effect of the gp120 on the lipidic film due to its interaction with GalCer molecules (Hammache et al., 1998). […] At this time however, the level of interaction indicated by the absolute increase of the surface pressure was identical to the one of gp120(IIIB). […] The GalCer-binding capacity of gp120(SEN) was reevaluated and shown to occur much more slowly, but not less efficiently, than of gp120(IIIB).

[4] = system: apical sodium/glucose cotransporter (SGLT1); experiment: Sodium-dependent glucose transport activity (ΔIsc after α-methylglucose) in HT-29-D4 cells; type: cell-based, human; details: for ΔIsc after α-methylglucose treatment: 50 nM, 3 mM α-methylglucose
Protocol: HT-29-D4 cells were cultured in two-compartment cell culture chambers on a polycarbonate filter (Transwell-clear, Catalog No. 3450, Costar) and analyzed for electrical parameters in modified custom made Ussing chambers as previously reported (Fantini et al., 1989). The chamber was maintained at 37° C. on a hot plate. Apical and basal compartments were filled with electrophysiological medium: 137 mM NaCl, 5.36 mM KCl, 0.4 mM Na2HPO4, 0.8 mM MgCl2, 1.8 mM CaCl2, 20 mM N-2-hydroxyethylpiperazine-N′-2-ethanesulfonic acid (HEPES), pH 7.4. Transepithelial potential difference was measured with Ag electrodes and continuously recorded using a voltage clamp unit (Physiologic Instrument). Bipolar current pulses (20 μA for 2 s, every 30 s) were passed through Ag electrodes to measure the transepithelial resistance (TEER), which was determined according to the Ohm's law (Delézay et al., 1997b). The sodium-dependent electrogenic glucose transport activity was measured as an increase of short-circuit current (ΔIsc) following apical incubation of HT-29-D4 cells with the nonmetabolizable analog of glucose α-methylglucose (Fantini et al., 2000a). Except when indicated, purified gp120s were incubated in the apical compartment of the cell culture chamber (total volume 1.5 ml instead of 10 ml for the basal compartment of the Ussing chamber device unit).
Differentiated HT-29-D4 cells cultured in Transwell chambers were either not treated (control) or treated with 50 nM of purified gp120 (IIIB isolate) for the time indicated in serum-containing culture medium. Transepithelial resistance (TEER) values and short-circuit current variations (ΔIsc) after incubation with 3 mM α-methylglucose (sodium-dependent glucose transport activity) were measured as described in Materials and Methods. The results are expressed as the mean SD of 4 separate experiments.

HT-29-D4 cells [5] = experiment: Transepithelial resistance (TEER) of differentiated HT-29-D4 cells; type: cell-based, human; details: for TEER: 50 nM, serum-containing medium, mean SD of 4 experiments; for decrease of transepithelial resistance: after 16 hr
HT-29-D4 cells [6] = experiment: Cytoskeletal organization and ultrastructure of HT-29-D4 cells (confocal, electron microscopy); type: cell-based, human
Protocol: HT-29-D4 cells grown on glass coverslips were fixed with 4% paraformaldehyde (w/v) in 0.1M phosphate buffer, pH 7.4, for 30 min at room temperature. The cells were then treated with 50 mM […] (15 min), rinsed with phosphate buffer containing 1% bovine serum albumin (BSA), and permeabilized with 0.2% Triton X-100 in phosphate buffer containing 5% BSA (30 min). For α-tubulin staining, coverslips were incubated in a humid atmosphere at 4° C. for 4 hr with the primary antibody (5 μg/ml) in phosphate buffer containing 1% BSA. After washing, the cells were incubated with fluoresecin-conjugated secondary antibodies for 90 min at 4° C. The coverslips were mounted in a Mowiol solution and analyzed by confocal microscopy (Leica TCS inverted laser scanning microscope) as previously reported (Delézay et al., 1997b). […]
The α-tubulin labeling was particularly intense in the medium part of the cells where it formed a complex network of microtubules surrounding the nucleus (a, b). […] Therefore, the presence of such cysts in HT-29-D4 cell monolayer was carefully analyzed by single staining with rhodamine-plalloidin. […]
Next, the ultrastructural changes induced by HIV-1 in differentiated HT-29-D4 cells was analyzed. […] The main ultrastructural change during incubation with virions or gp120 was the presence of intra- and inter-cellular lumina that could be detected in about 5% of the cells. […]

| Compound | inhibition of gp120-induced calcium signaling, in words [1] | inhibition of gp120-induced microtubule loss [2] | interaction with GalCer film, in words [3] | time to equilibrium of surface pressure [3] | ΔIsc after α-methylglucose treatment ([4]; 16 hr) | ΔIsc after α-methylglucose treatment ([4]; 48 hr) | reduction of SGLT1 electrogenic activity ([4]; after 16 hr) | decrease of SGLT1 activity ([4]; after 48 hr) | TEER (HT-29-D4 cells [5]; 16 hr) | TEER (HT-29-D4 cells [5]; 48 hr) | TEER enhancement (relative TEER) (HT-29-D4 cells [5]; 20 min after addition, electrophysiological medium, n=3) | decrease of transepithelial resistance (HT-29-D4 cells [5]) | decrease of transepithelial resistance (HT-29-D4 cells [5]; listed as gp120 (IIIB isolate)) | decrease of TEER (HT-29-D4 cells [5]; after 48 hr) | time at which TEER had decreased to null values (HT-29-D4 cells [5]; continuous recording, electrophysiological medium) | cells with cysts / lumina (HT-29-D4 cells [6]; 1 hr exposure) | α-tubulin staining (HT-29-D4 cells [6]; 1 hr of incubation) |
| --- | --- | --- | --- | --- | --- | --- | --- | --- | --- | --- | --- | --- | --- | --- | --- | --- | --- |
| COc1ccc2c(c1)CC[C@@H]1[C@@H]2CC[C@]2(C)[C@@H](NCCCCCCN3C(=O)C=CC3=O)CC[C@@H]12 [U73122] | No significant gp120IIIB-induced calcium signaling; also recorded: inhibited | inhibited and not | – | – | – | – | – | – | – | – | – | – | – | – | – | – | – |
| gp120(IIIB): surface envelope glycoprotein purified from HIV-1(IIIB) by lectin affinity chromatography | – | – | exponential increase in the surface pressure | 45 min | 0.35 ± 0.07 μA · cm^−2 | 0.29 ± 0.11 μA · cm^−2 | 70% | 80% | 300 ± 108 Q · cm^2 | 320 ± 267 Q · cm^2 | 1.60±0.17 | greater than 80% | 81% | 74% | 12 h | about 5% | dramatic decrease |
| pertussis toxin | No significant gp120IIIB-induced calcium signaling; also recorded: inhibited | inhibited and not | – | – | – | – | – | – | – | – | – | – | – | – | – | – | – |

From patent publication US20050042747A1, “Hivgp120-induced bob/gpr15 activation” (priority 2001, published 2005)
